From US12227488B2, “Small molecule degraders of Helios and methods of use” (DANA-FARBER CANCER INSTITUTE, INC., priority 2018, dated 2025)

Experiments:
IKZF2 = experiment: Cellular degradation assay, eGFP-IKZF2Δ fusion with mCherry reporter in Flp-In 293 cells; assay type: cell-based; settings: for IKZF2 GFP/RFP Relative Abundance: 5 h incubation, n=1; for DC50: half degradation at 5 h (DC50,5 h), triplicate, 11 point dose response
Protocol: (§1) IKZF1Δ, IKZF2Δ, GSPT1 and SALL4 ZnF1-2 were subcloned into mammalian pcDNA5/FRT Vector (Ampicillin and Hygromycin B resistant) modified to contain MCS-eGFP-P2A-mCherry. […] Following 2-3 passage cycle, FACS (FACSAria™ II, BD) was used to enrich for cells expressing eGFP and mCherry. Cells stably expressing the IKZF1Δ, IKZF2Δ, GSPT1 or SALL4 Znf1-2 GFP fusions with mCherry reporter were seeded at 30-50% confluency in 384-well plates with 50 μL FluoroBrite™ DMEM media (Thermo Fisher Scientific, A18967) containing 10% FBS per well a day before compound treatment. Compound titrations were dispensed using a D300e Digital Dispenser (HP), normalized to 0.5% DMSO, and incubated with cells for 5 hours.
(§2) The resulting images were analyzed using CellProfiler™. A series of image analysis steps (‘image analysis pipeline’) was constructed. First, the red and green channels were aligned and cropped to target the middle of each well (to avoid analysis of heavily clumped cells at the edges), and a background illumination function was calculated for both red and green channels of each well individually and subtracted to correct for illumination variations across the 384-well plate from various sources of error. An additional step was then applied to the green channel to suppress the analysis of large auto fluorescent artifacts and enhance the analysis of cell specific fluorescence by way of selecting for objects under a given size, 30 A.U., and with a given shape, speckles. mCherry-positive cells were then identified in the red channel filtering for objects between 8-60 pixels in diameter and using intensity to distinguish between clumped objects. The green channel was then segmented into GFP positive and negative areas and objects were labeled as GFP positive if at least 40% of it overlapped with a GFP positive area. The fraction of GFP-positive cells/mCherry-positive cells in each well was then calculated, and the green and red images were rescaled for visualization.
(§3) The degradation assay was performed as described above. […] Degradation was measured after 5 h of compound treatment and the concentrations that lead to half degradation at 5 h (DC50,5 h) were calculated using the nonlinear fit variable slope model (GraphPad Software).

IKZF1 = target: T1, IKZF1 (Homo sapiens, UniProt Q13422); experiment: Cellular degradation assay, eGFP-IKZF1Δ fusion with mCherry reporter in Flp-In 293 cells; assay type: cell-based; settings: for IKZF1 GFP/RFP Relative Abundance: 5 h incubation, n=1; for DC50: half degradation at 5 h (DC50,5 h), triplicate, 11 point dose response; for potency of IKZF1 degradation, in words: Table 3 summary
T1 construct: expressed in transfected cells; host or cells: Flp-In 293
Protocol: as §1, §2, §3

GSPT1 = GSPT1 (Homo sapiens, UniProt P15170+Q96SW2); experiment: Cellular degradation assay, eGFP-GSPT1 fusion with mCherry reporter in Flp-In 293 cells; assay type: cell-based; design: expressed in transfected cells; host or cells: Flp-In 293; settings: for GSPT1 GFP/RFP Relative Abundance: 5 h incubation, n=1; for DC50: half degradation at 5 h (DC50,5 h), triplicate, 11 point dose response
Protocol: as §1, §2, §3

CRBN and Helios (IKZF2) = target: T2, CRBN and Helios (IKZF2) (Homo sapiens, UniProt Q96SW2+Q9UKS7); experiment: TR-FRET dimerization assay (CRBN-IKZF2 ternary complex formation); assay type: binding; settings: n=1
T2 construct: His (N); Strep (N)
Protocol: A focused library of imide analogs was synthesized and assessed for their ability to induce dimerization between CRBN and Helios in a time-resolved fluorescence energy transfer (TR-FRET) assay (FIG. 1A).
Prior to TR-FRET measurements being conducted, the reactions were incubated for 15 min at rt. […] The TR-FRET signal of each data point was extracted by calculating the 520/490 nm ratios. Data from single measurements (n=1), each calculated as an average of at least three technical replicates per well per experiment are presented in Table 1.
BODIPY-labeled CRBN in complex with Damage Specific DNA Binding Protein 1 (DDB1) harboring an internal deletion of the flexible BPB propeller (DDB1AB-CRBN) and in vitro biotinylated IKZF2 were treated with increasing concentrations of the indicated compounds in the presence of tracer amounts of Terbium-Streptavidin (Tb-SA). Compound-induced recruitment of IKZF2 to CRBN was quantified following the 520/490 TR-FRET ratio using a PHERAstar® plate reader (BMG) utilizing two synchronized PMTs to reduce background.

[1] = compound concentration 2.00E−05
[2] = compound concentration 2.00E−06
[3] = compound concentration 2.00E−07
[4] = compound concentration 6.6667E−05
[5] = compound concentration 6.6667E−06
[6] = compound concentration 6.6667E−07 (667 nM)

T2 sequence (Q96SW2 whole entry): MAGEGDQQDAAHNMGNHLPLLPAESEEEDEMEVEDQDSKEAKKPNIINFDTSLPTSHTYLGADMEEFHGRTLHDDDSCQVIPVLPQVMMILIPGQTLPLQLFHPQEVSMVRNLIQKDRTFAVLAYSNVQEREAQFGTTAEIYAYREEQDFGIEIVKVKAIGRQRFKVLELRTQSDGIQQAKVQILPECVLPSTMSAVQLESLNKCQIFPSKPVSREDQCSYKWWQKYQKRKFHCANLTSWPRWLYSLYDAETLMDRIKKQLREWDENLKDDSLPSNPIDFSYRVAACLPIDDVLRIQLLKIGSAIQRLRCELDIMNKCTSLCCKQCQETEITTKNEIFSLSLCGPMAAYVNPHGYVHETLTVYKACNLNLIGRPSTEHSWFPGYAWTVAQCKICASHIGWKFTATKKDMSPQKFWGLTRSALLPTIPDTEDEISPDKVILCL
T2 sequence (Q9UKS7 whole entry): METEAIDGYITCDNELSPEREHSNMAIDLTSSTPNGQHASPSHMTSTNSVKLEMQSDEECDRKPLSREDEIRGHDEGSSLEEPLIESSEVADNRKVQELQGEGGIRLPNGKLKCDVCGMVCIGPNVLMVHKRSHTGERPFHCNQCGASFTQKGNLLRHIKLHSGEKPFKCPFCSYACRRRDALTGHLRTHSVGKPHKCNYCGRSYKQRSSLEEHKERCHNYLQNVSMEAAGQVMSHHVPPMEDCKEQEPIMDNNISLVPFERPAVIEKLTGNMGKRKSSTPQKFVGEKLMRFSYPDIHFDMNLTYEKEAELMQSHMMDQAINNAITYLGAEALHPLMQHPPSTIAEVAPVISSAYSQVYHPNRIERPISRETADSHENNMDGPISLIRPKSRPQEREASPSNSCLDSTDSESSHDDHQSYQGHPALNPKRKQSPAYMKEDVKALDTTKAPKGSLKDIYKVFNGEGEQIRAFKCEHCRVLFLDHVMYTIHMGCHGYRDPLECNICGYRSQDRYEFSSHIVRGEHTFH
T1 sequence (Q13422 83-213 isoform Q13422-7 limits assumed): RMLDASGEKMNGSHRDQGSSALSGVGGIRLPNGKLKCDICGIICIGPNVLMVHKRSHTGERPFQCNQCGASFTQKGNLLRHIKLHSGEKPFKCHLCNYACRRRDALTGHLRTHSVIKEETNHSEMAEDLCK
T1 sequence (Q96SW2 whole entry partner, the tested form may be a part): as the sequence (Q96SW2 whole entry) above
T1 sequence (Q16531 2-1140 partner limits assumed): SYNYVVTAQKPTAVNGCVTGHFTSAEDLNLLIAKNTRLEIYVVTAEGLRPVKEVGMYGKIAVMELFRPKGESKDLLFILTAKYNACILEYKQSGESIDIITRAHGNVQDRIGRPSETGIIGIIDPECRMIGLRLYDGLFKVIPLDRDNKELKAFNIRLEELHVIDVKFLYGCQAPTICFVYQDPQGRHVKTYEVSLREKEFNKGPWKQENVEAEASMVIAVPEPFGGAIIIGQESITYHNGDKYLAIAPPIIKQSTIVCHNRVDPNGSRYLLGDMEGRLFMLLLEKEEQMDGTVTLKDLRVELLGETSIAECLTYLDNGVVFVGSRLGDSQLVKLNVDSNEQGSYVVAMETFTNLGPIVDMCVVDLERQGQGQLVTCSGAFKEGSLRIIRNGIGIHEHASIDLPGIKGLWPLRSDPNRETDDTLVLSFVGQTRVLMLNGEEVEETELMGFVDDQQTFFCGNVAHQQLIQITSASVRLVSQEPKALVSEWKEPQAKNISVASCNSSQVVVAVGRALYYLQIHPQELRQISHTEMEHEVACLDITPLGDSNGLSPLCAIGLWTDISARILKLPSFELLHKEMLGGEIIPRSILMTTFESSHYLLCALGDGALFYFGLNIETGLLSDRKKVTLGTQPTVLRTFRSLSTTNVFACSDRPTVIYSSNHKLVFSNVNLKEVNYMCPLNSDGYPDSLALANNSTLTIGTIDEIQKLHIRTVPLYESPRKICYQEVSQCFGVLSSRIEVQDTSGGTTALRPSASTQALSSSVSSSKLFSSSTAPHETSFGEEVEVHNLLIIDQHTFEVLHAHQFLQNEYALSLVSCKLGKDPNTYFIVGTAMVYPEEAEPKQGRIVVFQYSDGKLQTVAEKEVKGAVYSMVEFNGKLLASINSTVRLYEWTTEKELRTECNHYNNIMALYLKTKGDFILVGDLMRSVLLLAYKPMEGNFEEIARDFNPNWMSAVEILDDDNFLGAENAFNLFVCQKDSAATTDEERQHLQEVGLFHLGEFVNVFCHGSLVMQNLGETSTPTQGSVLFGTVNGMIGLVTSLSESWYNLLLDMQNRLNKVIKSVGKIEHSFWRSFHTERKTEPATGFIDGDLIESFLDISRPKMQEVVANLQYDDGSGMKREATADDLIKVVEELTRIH
GSPT1, sequence (P15170 whole entry, the tested form may be a part): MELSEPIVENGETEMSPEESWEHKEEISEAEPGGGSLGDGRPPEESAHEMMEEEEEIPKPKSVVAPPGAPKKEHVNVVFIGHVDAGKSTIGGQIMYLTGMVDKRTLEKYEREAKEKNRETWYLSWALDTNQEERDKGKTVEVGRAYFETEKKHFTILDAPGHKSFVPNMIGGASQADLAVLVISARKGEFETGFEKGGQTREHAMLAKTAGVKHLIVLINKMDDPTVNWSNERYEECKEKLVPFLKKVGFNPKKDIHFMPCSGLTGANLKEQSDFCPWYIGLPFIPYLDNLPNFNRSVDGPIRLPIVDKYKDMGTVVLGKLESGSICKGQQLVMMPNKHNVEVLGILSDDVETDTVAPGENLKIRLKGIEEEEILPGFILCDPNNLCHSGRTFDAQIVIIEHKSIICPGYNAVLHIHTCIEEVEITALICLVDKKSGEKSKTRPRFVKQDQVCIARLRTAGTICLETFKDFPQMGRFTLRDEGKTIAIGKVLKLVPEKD
GSPT1, sequence (Q96SW2 whole entry, the tested form may be a part): as the sequence (Q96SW2 whole entry) above
GSPT1, sequence (Q16531 whole entry partner, the tested form may be a part): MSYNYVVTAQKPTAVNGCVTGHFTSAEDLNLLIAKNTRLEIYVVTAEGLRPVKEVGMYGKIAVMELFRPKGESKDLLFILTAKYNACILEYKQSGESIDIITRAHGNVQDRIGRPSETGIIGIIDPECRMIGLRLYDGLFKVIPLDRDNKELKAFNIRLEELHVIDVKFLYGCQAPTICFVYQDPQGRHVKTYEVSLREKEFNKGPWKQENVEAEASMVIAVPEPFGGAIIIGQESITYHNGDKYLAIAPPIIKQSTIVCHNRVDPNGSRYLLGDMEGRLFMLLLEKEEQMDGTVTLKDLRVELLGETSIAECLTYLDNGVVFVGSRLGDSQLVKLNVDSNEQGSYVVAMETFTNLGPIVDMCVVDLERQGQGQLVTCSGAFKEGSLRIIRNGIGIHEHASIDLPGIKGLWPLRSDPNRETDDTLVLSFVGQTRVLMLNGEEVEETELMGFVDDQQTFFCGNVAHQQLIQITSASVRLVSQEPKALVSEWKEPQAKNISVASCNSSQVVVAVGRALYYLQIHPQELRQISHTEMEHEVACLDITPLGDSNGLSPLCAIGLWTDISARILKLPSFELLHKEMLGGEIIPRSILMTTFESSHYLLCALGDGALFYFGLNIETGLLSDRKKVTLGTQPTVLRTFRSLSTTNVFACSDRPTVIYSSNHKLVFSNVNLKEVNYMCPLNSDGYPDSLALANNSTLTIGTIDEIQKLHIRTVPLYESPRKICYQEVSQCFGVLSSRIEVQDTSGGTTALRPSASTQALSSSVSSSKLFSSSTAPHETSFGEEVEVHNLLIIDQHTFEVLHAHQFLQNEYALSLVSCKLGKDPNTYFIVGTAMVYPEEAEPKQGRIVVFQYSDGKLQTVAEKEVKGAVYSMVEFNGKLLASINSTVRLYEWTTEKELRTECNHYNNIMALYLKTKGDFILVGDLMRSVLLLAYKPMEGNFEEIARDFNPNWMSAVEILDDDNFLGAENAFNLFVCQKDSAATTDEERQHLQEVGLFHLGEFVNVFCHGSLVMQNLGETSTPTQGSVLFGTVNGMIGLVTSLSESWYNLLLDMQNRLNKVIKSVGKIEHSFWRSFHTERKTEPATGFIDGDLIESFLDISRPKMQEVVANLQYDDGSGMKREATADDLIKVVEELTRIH

| Structure (SMILES) | IKZF2 GFP/RFP Relative Abundance (IKZF2; [1]) | IKZF2 GFP/RFP Relative Abundance (IKZF2; [2]) | IKZF2 GFP/RFP Relative Abundance (IKZF2; [3]) | IKZF1 GFP/RFP Relative Abundance (IKZF1; [1]) | IKZF1 GFP/RFP Relative Abundance (IKZF1; [2]) | IKZF1 GFP/RFP Relative Abundance (IKZF1; [3]) | GSPT1 GFP/RFP Relative Abundance (GSPT1; [1]) | GSPT1 GFP/RFP Relative Abundance (GSPT1; [2]) | GSPT1 GFP/RFP Relative Abundance (GSPT1; [3]) | TR-FRET-IKZF2 (Normalized to CC-885) (CRBN and Helios (IKZF2); [4]) | TR-FRET-IKZF2 (Normalized to CC-885) (CRBN and Helios (IKZF2); [5]) | TR-FRET-IKZF2 (Normalized to CC-885) (CRBN and Helios (IKZF2); [6]) | degradation selectivity IKZF2/IKZF1 (IKZF2; from DC50 values of Table 3) | DC50 (IKZF2) | DC50 (IKZF1) | DC50 (GSPT1) | potency of IKZF1 degradation, in words (IKZF1) |
| --- | --- | --- | --- | --- | --- | --- | --- | --- | --- | --- | --- | --- | --- | --- | --- | --- | --- |
| Cc1ccc(NC(=O)NCc2cccc(NC3=CC(=O)N(C4CCC(=O)NC4=O)C3=O)c2)cc1C (stereo not drawn) [Compound 58, 1-(3,4-dimethylphenyl)-3-(3-((1-(2,6-dioxopiperidin-3-yl)-2,5-dioxo-2,5-dihydro-1H-pyrrol-3-yl)amino)benzyl)urea] | 0.064 | 0.077 | 0.122 | 0.075 | 0.070 | 0.074 | 0.421 | 0.603 | 0.594 | 1.184 | 1.061 | 0.927 | – | – | – | – | – |
| CC(C)(NC(=O)Cc1cccc(C(F)(F)F)c1)c1cccc(NC2=CC(=O)N(C3CCC(=O)NC3=O)C2=O)c1 (stereo not drawn) [Compound 139, N-(2-(3-((1-(2,6-dioxopiperidin-3-yl)-2,5-dioxo-2,5-dihydro-1H-pyrrol-3-yl)amino)phenyl)propan-2-yl)-2-(3-(trifluoromethyl)phenyl)acetamide] | – | – | – | – | – | – | – | – | – | – | – | – | 10 fold | 17 nM | 167 nM | > 1000 nM | – |
| Cc1ccc(NC(=O)c2cccc(NC3=CC(=O)N(C4CCC(=O)NC4=O)C3=O)c2)cc1Cl (stereo not drawn) [Compound 49, N-(3-chloro-4-methylphenyl)-3-((1-(2,6-dioxopiperidin-3-yl)-2,5-dioxo-2,5-dihydro-1H-pyrrol-3-yl)amino)benzamide] | 0.665 | 0.612 | 0.830 | 0.268 | 0.187 | 0.314 | 0.125 | 0.055 | 0.069 | 0.801 | 0.690 | 0.472 | – | 7.2 nM | 1.9 nM | > 1000 nM | most potent against IKZF1 |
| Cc1ccc(NC(=O)/C=C/c2cccc(NC3=CC(=O)N(C4CCC(=O)NC4=O)C3=O)c2)cc1Cl (stereo not drawn) [Compound 57, (E)-N-(3-chloro-4-methylphenyl)-3-(3-((1-(2,6-dioxopiperidin-3-yl)-2,5-dioxo-2,5-dihydro-1H-pyrrol-3-yl)amino)phenyl)acrylamide] | 0.843 | 0.622 | 0.656 | 0.502 | 0.214 | 0.305 | 0.385 | 0.559 | 0.779 | 0.530 | 0.365 | 0.282 | – | – | – | – | – |
| Cc1ccc(NC(=O)CCc2cccc(NC3=CC(=O)N(C4CCC(=O)NC4=O)C3=O)c2)cc1Cl (stereo not drawn) [Compound 53, N-(3-chloro-4-methylphenyl)-3-(3-((1-(2,6-dioxopiperidin-3-yl)-2,5-dioxo-2,5-dihydro-1H-pyrrol-3-yl)amino)phenyl)propanamide] | 0.030 | 0.022 | 0.029 | 0.110 | 0.077 | 0.078 | 0.232 | 0.982 | 0.931 | 1.708 | 1.574 | 1.455 | – | – | – | – | – |
| CC(NC(=O)Cc1cccc(C(F)(F)F)c1)c1cccc(NC2=CC(=O)N(C3CCC(=O)NC3=O)C2=O)c1 (stereo not drawn) [Compound 142, N-(1-(3-((1-(2,6-dioxopiperidin-3-yl)-2,5-dioxo-2,5-dihydro-1H-pyrrol-3-yl)amino)phenyl)ethyl)-2-(3-(trifluoromethyl)phenyl)acetamide] | – | – | – | – | – | – | – | – | – | – | – | – | – | 16 nM | 16 nM | > 1000 nM | – |
| Cc1ccc(NC(=O)Nc2cccc(NC3=CC(=O)N(C4CCC(=O)NC4=O)C3=O)c2)cc1C (stereo not drawn) [Compound 55, 1-(3,4-dimethylphenyl)-3-(3-((1-(2,6-dioxopiperidin-3-yl)-2,5-dioxo-2,5-dihydro-1H-pyrrol-3-yl)amino)phenyl)urea] | 1.029 | 0.936 | 0.938 | 0.471 | 0.212 | 0.251 | 0.096 | 0.153 | 0.180 | 0.523 | 0.430 | 0.321 | – | – | – | – | – |
| Cc1ccc(NC(=O)COc2cccc(NC3=CC(=O)N(C4CCC(=O)NC4=O)C3=O)c2)cc1Cl (stereo not drawn) [Compound 125, N-(3-chloro-4-methylphenyl)-2-(3-((1-(2,6-dioxopiperidin-3-yl)-2,5-dioxo-2,5-dihydro-1H-pyrrol-3-yl)amino)phenoxy)acetamide] | – | – | – | – | – | – | – | – | – | – | – | – | – | 24 nM | 1.7 nM | > 1000 nM | most potent against IKZF1 |
| Cc1ccc(NC(=O)Oc2cccc(NC3=CC(=O)N(C4CCC(=O)NC4=O)C3=O)c2)cc1Cl (stereo not drawn) [Compound 51, 3-((1-(2,6-dioxopiperidin-3-yl)-2,5-dioxo-2,5-dihydro-1H-pyrrol-3-yl)amino)phenyl (3-chloro-4-methylphenyl)carbamate] | 1.083 | 1.044 | 1.024 | 0.861 | 1.001 | 1.026 | 1.680 | 0.829 | 0.775 | 0.037 | 0.032 | 0.017 | – | – | – | – | – |
| O=C1CCC(N2C(=O)C=C(Nc3cccc(NC(=O)Nc4ccc(Cl)c(Cl)c4)c3)C2=O)C(=O)N1 (stereo not drawn) [Compound 56, 1-(3,4-dichlorophenyl)-3-(3-((1-(2,6-dioxopiperidin-3-yl)-2,5-dioxo-2,5-dihydro-1H-pyrrol-3-yl)amino)phenyl)urea] | 1.092 | 1.025 | 0.983 | 1.190 | 0.319 | 0.403 | 1.572 | 0.074 | 0.112 | 0.383 | 0.282 | 0.187 | – | – | – | – | – |
| O=C1CCC(N2C(=O)C=C(Nc3cccc(CCC(=O)Nc4cccc(C(F)(F)F)c4)c3)C2=O)C(=O)N1 (stereo not drawn) [Compound 148, 3-(3-((1-(2,6-dioxopiperidin-3-yl)-2,5-dioxo-2,5-dihydro-1H-pyrrol-3-yl)amino)phenyl)-N-(3-(trifluoromethyl)phenyl)propanamide] | – | – | – | – | – | – | – | – | – | – | – | – | – | 13 nM | 3.2 nM | > 1000 nM | – |
